Experimental data taken from ChEMBL document CHEMBL1135216, “New 2-(1-adamantylcarbonyl)pyridine and 1-acetyladamantane thiosemicarbazones-thiocarbonohydrazones: cell growth inhibitory, antiviral and antimicrobial activity evaluation” (Bioorg Med Chem Lett, 2002).
Values after ≈ are worked out from the molar mass of the structure shown.

How the values were obtained:
[1] = tested on: MT4; assay: Tested for cytotoxic concentration required to reduce the viability of MT-4 cells by 50%; assay type: functional, cell-based; settings: Homo sapiens, read-out: EC50 (the source's name)
[2] = tested on: RPMI-8226; assay: Tested for the inhibitory concentration against cell growth of […] multiple myeloma using MTT assay; assay type: functional; settings: Homo sapiens
[3] = tested on: Escherichia coli; assay: Tested for the antimicrobial activity against Escherichia coli ATCC 25922; assay type: functional
[4] = tested on: E6SM; assay: Tested for antiviral activity against VSV-virus in human embryonic skin muscle fibroblasts; assay type: functional; settings: Muscle tissue
[5] = tested on: E6SM; assay: Tested for antiviral activity against herpes simplex virus type 1(KOS) in E6SM cell line(human embryonic skin-muscle fibroblasts); assay type: functional
[6] = tested on: Vero; assay: Tested for cytotoxic activity in African green monkey kidney cells (Vero); assay type: functional; settings: Chlorocebus sabaeus
[7] = tested on: E6SM; assay: Antiviral activity against thymidine kinase-deficient (TK-HSV-2G) virus in E6SM cell line(human embryonic skin-muscle fibroblasts); assay type: functional
[8] = tested on: Vero; assay: Tested for antiviral activity against Reo-1 virus in African green monkey kidney cell (Vero); assay type: functional; settings: Chlorocebus sabaeus
[9] = tested on: HEL; assay: Tested for antiviral activity against human cytomegalovirus (AD-169) in human embryonic lung fibroblasts; assay type: functional
[10] = tested on: RPMI-8226; assay: Tested for the inhibitory concentration against cell growth of human leukemic cell line RPMI8226; assay type: functional
[11] = tested on: E6SM; assay: Tested for cytotoxic activity in human embryonic skin muscle fibroblast (E6SM); assay type: functional; settings: Muscle tissue
[12] = tested on: Klebsiella pneumoniae; assay: Tested for the antimicrobial activity against Klebsiella pneumoniae ATCC 13883; assay type: functional
[13] = tested on: MOLT-4; assay: Tested for the concentration required to reduce the viability of leukemia cells by 50% against cell growth of T cell leukemia cell line MOLT-4 using MTT assay; assay type: functional; settings: Homo sapiens, read-out: LC50 (the source's name)
[14] = tested on: K562; assay: Tested for the inhibitory concentration against cell growth of human leukemic cell line K562; assay type: functional
[15] = tested on: Staphylococcus hominis; assay: Tested for the antimicrobial activity against Staphylococcus hominis ATCC 27844; assay type: functional
[16] = tested on: CCRF-CEM; assay: Tested for the inhibitory concentration against cell growth of human leukemic cell line CCRF-CEM; assay type: functional
[17] = tested on: CCRF-CEM; assay: Tested for the inhibitory concentration against cell growth of Tcell leukemic cell line CCRF-CEM using MTT assay; assay type: functional; settings: Homo sapiens
[18] = tested on: HuT78; assay: Tested for the inhibitory concentration against cell growth of HuT78 T lymphoma using MTT assay; assay type: functional; settings: Homo sapiens
[19] = tested on: K562; assay: Tested for the concentration required to reduce the viability of leukemia cells by 50% against cell growth of K562 chronic myeloid leukemia using MTT assay; assay type: functional; settings: Homo sapiens, read-out: LC50 (the source's name)
[20] = tested on: HL-60; assay: Tested for the inhibitory concentration against cell growth of human leukemic cell line HL60; assay type: functional
[21] = tested on: HEL; assay: Tested for cytotoxic activity in human embryonic lung fibroblast (HEL); assay type: functional
[22] = tested on: MOLT-4; assay: Tested for the inhibitory concentration against cell growth of human leukemic cell line MOLT-4; assay type: functional
[23] = tested on: Staphylococcus aureus; assay: Tested for the antimicrobial activity against Staphylococcus aureus ATCC 6538; assay type: functional
[24] = tested on: Vero; assay: Tested for antiviral activity against coxsackie B-4 virus in African green monkey kidney cell (Vero); assay type: functional; settings: Chlorocebus sabaeus
[25] = tested on: Vero; assay: Tested for antiviral activity against Sindbis virus in African green monkey kidney cell (Vero); assay type: functional; settings: Chlorocebus sabaeus
[26] = tested on: Staphylococcus epidermidis; assay: Tested for the antimicrobial activity against Staphylococcus epidermidis ATCC 12228; assay type: functional
[27] = tested on: Vero; assay: Tested for antiviral activity against parainfluenza virus in african green monkey kidney cell (Vero); assay type: functional; settings: Chlorocebus sabaeus
[28] = tested on: E6SM; assay: Antiviral activity against thymidine kinase-deficient (TK-HSV-1)virus in E6SM cell line(human embryonic skin-muscle fibroblasts); assay type: functional
[29] = tested on: MT4; assay: Tested for effective concentration required to protect MT-4 cells against the cytopathicity of HIV-1(IIIB); assay type: functional; settings: Homo sapiens, read-out: LC50 (the source's name)
[30] = tested on: HeLa; assay: Tested for cytotoxic activity in human epithelial cell line (HeLa); assay type: functional
[31] = tested on: MOLT-4; assay: Tested for the inhibitory concentration against cell growth of Tcell leukemic cell line MOLT-4 using MTT assay; assay type: functional; settings: Homo sapiens
[32] = tested on: HeLa; assay: The compound was tested for antiviral activity against VSV-virus in human epithelial cells; assay type: functional
[33] = tested on: RPMI-8226; assay: Tested for the concentration required to reduce the viability of leukemia cells by 50% against cell growth of RPMI8226 multiple myeloma using MTT assay; assay type: functional; settings: Homo sapiens, read-out: LC50 (the source's name)
[34] = tested on: HuT78; assay: Tested for the inhibitory concentration against cell growth of human leukemic cell line HuT78; assay type: functional
[35] = tested on: HL-60; assay: Tested for the concentration required to reduce the viability of leukemia cells by 50% against cell growth of HL60 acute myeloid leukemia using MTT assay; assay type: functional; settings: Homo sapiens, read-out: LC50 (the source's name)
[36] = tested on: K562; assay: Tested for the inhibitory concentration against cell growth of K562 chronic myeloid leukemia using MTT assay; assay type: functional; settings: Homo sapiens
[37] = tested on: HL-60; assay: Tested for the inhibitory concentration against cell growth of HL60 acute myeloid leukemia using MTT assay; assay type: functional; settings: Homo sapiens
[38] = tested on: HuT78; assay: Tested for the concentration required to reduce the viability of leukemia cells by 50% against cell growth of HuT78 T lymphoma using MTT assay; assay type: functional; settings: Homo sapiens, read-out: LC50 (the source's name)
[39] = tested on: HEL; assay: Tested for antiviral activity against thymidine kinase deficient Varicella zoster virus in human embryonic lung fibroblasts; assay type: functional
[40] = tested on: MT4; assay: (§1) Tested for effective concentration required to protect MT-4 cells against the cytopathicity of HIV-2(ROD); assay type: functional, cell-based; settings: Homo sapiens
[41] = tested on: Vero; assay: Tested for antiviral activity against Punta toro virus in African green monkey kidney cell (Vero); assay type: functional; settings: Chlorocebus sabaeus
[42] = tested on: CCRF-CEM; assay: Tested for the concentration required to reduce the viability of leukemia cells by 50% against cell growth of T cell leukemia cell line CCRF-CEM using MTT assay; assay type: functional; settings: Homo sapiens, read-out: LC50 (the source's name)
[43] = tested on: HeLa; assay: Tested for antiviral activity against coxsackie-B4 virus in human epithelial cell line; assay type: functional
[44] = tested on: E6SM; assay: Tested for antiviral activity against vaccinia virus in human embryonic skin muscle fibroblast; assay type: functional; settings: Muscle tissue
[45] = tested on: HEL; assay: Tested for antiviral activity against thymidine kinase wild type Varicella zoster virus in human embryonic lung fibroblast; assay type: functional
[46] = tested on: MT4; assay: as §1; assay type: functional; settings: Homo sapiens, read-out: LC50 (the source's name)
[47] = tested on: E6SM; assay: Tested for antiviral activity against thymidine kinase-deficient (TK-HSV-2G) virus in E6SM cell line(human embryonic skin-muscle fibroblasts); assay type: functional
[48] = tested on: E6SM; assay: The compound was tested for antiviral activity against thymidine kinase-deficient (TK-HSV-1)virus in E6SM cell line(human embryonic skin-muscle fibroblasts); assay type: functional

## N/N=C(\S)N/N=C(/c1ccccn1)C12CC3CC(CC(C3)C1)C2
[1]
  CC50: 27.3 µM
[2]
  TGI: 100 µM
[3]
  MIC: > 3040 µg/mL
[4]
  MIC: > 16 µg/mL
[5]
  MIC: > 16 µg/mL
[6]
  MCC: 80 µg/mL
[7]
  MIC: > 16 µg/mL
[8]
  MIC: > 80 µg/mL
[9]
  MIC: > 5 µg/mL
[10]
  GI50: 100 µM
[11]
  MCC: > 80 µg/mL
[12]
  MIC: > 3040 µg/mL
[13]
  CC50: 100 µM
[14]
  GI50: 41.7 µM
[15]
  MIC: > 3040 µg/mL
[16]
  GI50: 100 µM
[17]
  TGI: 100 µM
[18]
  TGI: 100 µM
[19]
  CC50: 100 µM
[20]
  TGI: 100 µM
[21]
  MCC: > 20 µg/mL
[22]
  GI50: 100 µM
[23]
  MIC: > 3040 µg/mL
[24]
  MIC: > 80 µg/mL
[25]
  MIC: > 80 µg/mL
[26]
  MIC: > 3040 µg/mL
[27]
  MIC: > 80 µg/mL
[28]
  MIC: > 16 µg/mL
[29]
  EC50: > 27 µM
[30]
  MCC: 400 µg/mL
[31]
  TGI: 100 µM
[32]
  MIC: > 80 µg/mL
[33]
  CC50: 100 µM
[34]
  GI50: 100 µM
[35]
  CC50: 100 µM
[36]
  TGI: 100 µM
[37]
  TGI: 100 µM
[38]
  CC50: 100 µM
[39]
  MIC: > 20 µg/mL
[40]
  EC50: > 27 µM
[41]
  MIC: > 80 µg/mL
[42]
  CC50: 100 µM
[43]
  MIC: > 80 µg/mL
[44]
  MIC: > 16 µg/mL
[45]
  MIC: > 20 µg/mL

## C/C(=N/N=C(/S)N/N=C(\S)c1ccc(Cl)cc1)C12CC3CC(CC(C3)C1)C2
[1]
  CC50: 10.1 µM
[2]
  TGI: 100 µM
[46]
  CC50: > 10 µM
[3]
  MIC: > 2300 µg/mL
[4]
  MIC: > 40 µg/mL
[5]
  MIC: > 40 µg/mL
[6]
  MCC: > 400 µg/mL
[8]
  MIC: > 40 µg/mL
[9]
  MIC: > 2 µg/mL
[10]
  GI50: 100 µM
[11]
  MCC: 200 µg/mL
[12]
  MIC: > 2300 µg/mL
[13]
  CC50: 100 µM
[14]
  GI50: 100 µM
[15]
  MIC: 1150 µg/mL (≈ 2730 µM)
[16]
  GI50: 100 µM
[17]
  TGI: 100 µM
[18]
  TGI: 100 µM
[19]
  CC50: 100 µM
[20]
  GI50: 100 µM
[21]
  MCC: > 5 µg/mL
[22]
  GI50: 100 µM
[23]
  MIC: 1150 µg/mL (≈ 2730 µM)
[24]
  MIC: > 40 µg/mL
[25]
  MIC: > 40 µg/mL
[26]
  MIC: 1150 µg/mL (≈ 2730 µM)
[47]
  MIC: > 40 µg/mL
[27]
  MIC: > 40 µg/mL
[29]
  EC50: > 10 µM
[30]
  MCC: > 200 µg/mL
[31]
  TGI: 100 µM
[32]
  MIC: > 40 µg/mL
[33]
  CC50: 100 µM
[34]
  GI50: 100 µM
[35]
  CC50: 100 µM
[36]
  TGI: 100 µM
[37]
  TGI: 100 µM
[48]
  MIC: > 40 µg/mL
[38]
  CC50: 100 µM
[39]
  MIC: > 2 µg/mL
[41]
  MIC: > 40 µg/mL
[42]
  CC50: 100 µM
[43]
  MIC: > 40 µg/mL
[44]
  MIC: > 5 µg/mL
[45]
  MIC: > 2 µg/mL
